From US20240150377A1, “MODULATORS OF CYSTIC FIBROSIS TRANSMEMBRANE CONDUCTANCE REGULATOR” (VERTEX PHARMACEUTICALS INCORPORATED, priority 2020, published 2024) come the findings set out here.

Read-outs that look alike come from different tables or passages of the source.

In this test the target is T1, CFTR (Homo sapiens, UniProt P13569, DEL508-508).
T1 construct: endogenous in cells; host or cells: primary human bronchial epithelial cells from CF subjects (F508del/MF-HBE), differentiated at air-liquid interface
As to the kind of experiment: HBE assay: Ussing chamber assay of CFTR-mediated short-circuit currents. Type of test: cell-based. The procedure, abridged: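 CFTR-mediated Isc (μA/cm²) equals the peak response to apical 20 μM forskolin minus the residual after a 20 μM each BPO/GlyH-101/CFTR inhibitor 172 cocktail, recorded in Ussing chambers at Vhold 0 mV, 37 °C, pH 7.4, with 30 μM apical amiloride. Cells were F508del/MF HBE cultures preincubated 18-24 h with corrector (concentration range or 10 μM) plus 1 μM ivacaftor in 20% human serum.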

The mark [1] stands for this setting: Table 11, read-out: HBE Max Activity (%).
Where [2] appears, read: Table 10, read-out: HBE Max activity (%).
Where [3] appears, read: Table 12, read-out: HBE Max Activity (%).
Setting [4] is: Table 13, read-out: HBE Max Activity (%).

T1 sequence (P13569 with tags, fused parts or gaps DEL508-508): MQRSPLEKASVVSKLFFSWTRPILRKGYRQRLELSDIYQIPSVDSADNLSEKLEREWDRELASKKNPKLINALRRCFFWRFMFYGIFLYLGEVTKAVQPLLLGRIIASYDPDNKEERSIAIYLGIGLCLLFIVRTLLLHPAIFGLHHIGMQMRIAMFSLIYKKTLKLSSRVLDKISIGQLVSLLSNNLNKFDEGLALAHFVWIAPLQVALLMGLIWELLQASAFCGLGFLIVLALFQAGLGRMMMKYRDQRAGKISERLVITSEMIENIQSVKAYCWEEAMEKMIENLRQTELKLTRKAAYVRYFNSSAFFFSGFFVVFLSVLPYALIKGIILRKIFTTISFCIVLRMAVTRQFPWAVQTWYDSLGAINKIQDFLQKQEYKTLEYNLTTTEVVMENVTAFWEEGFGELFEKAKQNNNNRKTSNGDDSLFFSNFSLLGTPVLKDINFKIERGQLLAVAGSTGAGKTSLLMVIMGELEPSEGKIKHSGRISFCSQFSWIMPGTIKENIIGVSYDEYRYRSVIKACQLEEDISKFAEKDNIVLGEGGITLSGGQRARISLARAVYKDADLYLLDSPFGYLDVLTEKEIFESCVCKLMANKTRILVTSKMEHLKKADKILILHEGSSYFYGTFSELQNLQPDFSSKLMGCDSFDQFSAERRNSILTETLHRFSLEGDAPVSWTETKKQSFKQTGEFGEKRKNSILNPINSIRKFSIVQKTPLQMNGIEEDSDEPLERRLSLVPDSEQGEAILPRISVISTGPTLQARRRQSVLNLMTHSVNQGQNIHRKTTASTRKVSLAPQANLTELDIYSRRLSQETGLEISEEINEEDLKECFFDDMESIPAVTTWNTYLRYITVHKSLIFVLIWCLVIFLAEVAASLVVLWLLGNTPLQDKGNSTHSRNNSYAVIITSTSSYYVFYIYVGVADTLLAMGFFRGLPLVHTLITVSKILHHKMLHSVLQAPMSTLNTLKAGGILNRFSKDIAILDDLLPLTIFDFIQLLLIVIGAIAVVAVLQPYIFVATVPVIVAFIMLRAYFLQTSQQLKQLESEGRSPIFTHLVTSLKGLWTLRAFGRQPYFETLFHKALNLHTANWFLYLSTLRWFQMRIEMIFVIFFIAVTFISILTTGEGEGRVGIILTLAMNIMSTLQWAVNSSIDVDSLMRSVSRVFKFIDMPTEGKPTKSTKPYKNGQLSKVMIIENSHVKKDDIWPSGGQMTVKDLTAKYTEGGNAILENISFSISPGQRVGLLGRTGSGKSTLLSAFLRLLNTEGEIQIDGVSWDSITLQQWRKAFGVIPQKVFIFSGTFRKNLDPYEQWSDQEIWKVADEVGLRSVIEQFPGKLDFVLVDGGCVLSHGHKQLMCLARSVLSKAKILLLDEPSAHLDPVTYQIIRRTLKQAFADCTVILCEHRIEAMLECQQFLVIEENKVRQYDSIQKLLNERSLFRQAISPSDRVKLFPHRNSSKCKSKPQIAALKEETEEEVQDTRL

By EC50 is commonly meant the midpoint of the concentration-response curve. For `COCC1CCCN1c1cccc(CN2C(=O)c3cccc(c3)S(=O)(=O)Nc3nc(cc(-c4c(C)cccc4C)n3)OC[C@H]2CC(C)(C)C)n1` (stereo partly drawn) [Compound 129, (11R)-6-(2,6-Dimethylphenyl)-11-(2,2-dimethylpropyl)-12-[[6-[2-(methoxymethyl)pyrrolidin-1-yl]-2-pyridyl]methyl]-2,2-dioxo-9-oxa-2λ^6-thia-3,5,12,19-tetrazatricyclo[12.3.1.14,8]nonadeca-1(18),4(19),5,7,14,16-hexaen-13-one], the EC50 (Table 10, read-out: HBE EC50) is under 1 µM. Besides, where the note is “read-out: HBE Activity at 10 μM (%)”, the activation at 10 µM was over 60%. Besides, the Emax (read-out: HBE Max activity (%)) was over 60%.
Turning to `CCN(c1cccc(CN2C(=O)c3cccc(c3)S(=O)(=O)Nc3nc(cc(-c4c(C)cccc4C)n3)OC[C@H]2CC(C)(C)C)n1)C(C)C` [Compound 131, (11R)-6-(2,6-Dimethylphenyl)-11-(2,2-dimethylpropyl)-12-({6-[ethyl(propan-2-yl)amino]pyridin-2-yl}methyl)-9-oxa-2λ^6-thia-3,5,12,19-tetraazatricyclo[12.3.1.14,8]nonadeca-1(17),4,6,8(19),14(18),15-hexaene-2,2,13-trione], the concentration giving a half-maximal response (EC50) (Table 11, read-out: HBE EC50) is under 1 µM. Besides, the Emax (read-out: HBE Max activity (%)) was over 60%.
For the compound `Cc1cccc(C)c1-c1cc2nc(n1)NS(=O)(=O)c1cccc(c1)C(=O)N(Cc1cccc(N3CCC[C@H]3C)n1)[C@H](CC(C)(C)C)CO2` [Compound 132, (11R)-6-(2,6-Dimethylphenyl)-11-(2,2-dimethylpropyl)-12-({6-[(2R)-2-methylpyrrolidin-1-yl]pyridin-2-yl}methyl)-9-oxa-2λ^6-thia-3,5,12,19-tetraazatricyclo[12.3.1.14,8]nonadeca-1(17),4,6,8(19),14(18),15-hexaene-2,2,13-trione], the EC50 (HBE EC50 (μM), Table 11) is under 1 µM. Moreover, the Emax (read-out: HBE Max activity (%)) was over 60%.
For the compound `Cc1cccc(C)c1-c1cc2nc(n1)NS(=O)(=O)c1cccc(c1)C(=O)N(Cc1cccc(N(C)CC(C)(C)C)n1)[C@H](CC(C)(C)C)CO2` [Compound 133, (11R)-6-(2,6-Dimethylphenyl)-11-(2,2-dimethylpropyl)-12-[[6-[2,2-dimethylpropyl(methyl)amino]-2-pyridyl]methyl]-2,2-dioxo-9-oxa-2λ^6-thia-3,5,12,19-tetrazatricyclo[12.3.1.14,8]nonadeca-1(18),4(19),5,7,14,16-hexaen-13-one], the EC50 (Table 11, read-out: HBE EC50) was under 1 µM. Moreover, the Emax under setting [1] was over 60%.
On the same counts, the results for `Cc1cccc(C)c1-c1cc2nc(n1)NS(=O)(=O)c1cccc(c1)C(=O)N(C[C@@H]1CN(CC(C)(C)C)CCO1)[C@H](CC(C)(C)C)CO2` [Compound 142, (11R)-6-(2,6-Dimethylphenyl)-11-(2,2-dimethylpropyl)-12-{[(2S)-4-(2,2-dimethylpropyl)morpholin-2-yl]methyl}-9-oxa-2λ^6-thia-3,5,12,19-tetraazatricyclo[12.3.1.14,8]nonadeca-1(17),4,6,8(19),14(18),15-hexaene-2,2,13-trione] are under 1 µM and over 60%.
Regarding `Cc1cccc(C)c1-c1cc2nc(n1)NS(=O)(=O)c1cccc(c1)C(=O)N(Cc1ccc(-c3c(C)n[nH]c3C)cc1)[C@H](CC(C)(C)C)CO2` [Compound 143, (11R)-12-{[4-(3,5-dimethyl-1H-pyrazol-4-yl)phenyl]methyl}-6-(2,6-dimethylphenyl)-11-(2,2-dimethylpropyl)-9-oxa-2λ^6-thia-3,5,12,19-tetraazatricyclo[12.3.1.14,8]nonadeca-1(17),4,6,8(19),14(18),15-hexaene-2,2,13-trione], the EC50 (Table 10, read-out: HBE EC50) is under 1 µM. The Emax under setting [2] was over 60%.
For `Cc1cccc(C)c1-c1cc2nc(n1)NS(=O)(=O)c1cccc(c1)C(=O)N(Cc1ccc(-c3cncnc3)cc1)[C@H](CC(C)(C)C)CO2` [Compound 144, (11R)-6-(2,6-dimethylphenyl)-11-(2,2-dimethylpropyl)-2,2-dioxo-12-[(4-pyrimidin-5-ylphenyl)methyl]-9-oxa-2λ^6-thia-3,5,12,19-tetrazatricyclo[12.3.1.14,8]nonadeca-1(18),4(19),5,7,14,16-hexaen-13-one], in that order: under 1 µM and over 60%.
With `Cc1cccc(C)c1-c1cc2nc(n1)NS(=O)(=O)c1cccc(c1)C(=O)N(Cc1ccc(-c3cnc(O)nc3)cc1)[C@H](CC(C)(C)C)CO2` [Compound 145, (11R)-6-(2,6-dimethylphenyl)-11-(2,2-dimethylpropyl)-12-[[4-(2-hydroxypyrimidin-5-yl)phenyl]methyl]-2,2-dioxo-9-oxa-2λ^6-thia-3,5,12,19-tetrazatricyclo[12.3.1.14,8]nonadeca-1(18),4(19),5,7,14,16-hexaen-13-one], the EC50 (Table 10, read-out: HBE EC50) lay within 1 to 3 µM. For the same compound, the Emax under setting [2] is over 60%.
On to `Cc1cccc(C)c1-c1cc2nc(n1)NS(=O)(=O)c1cccc(c1)C(=O)N(Cc1ccc(N3CC(=O)NC3=O)cc1)[C@H](CC(C)(C)C)CO2` [Compound 146, 1-[4-[[(11R)-6-(2,6-Dimethylphenyl)-11-(2,2-dimethylpropyl)-2,2,13-trioxo-9-oxa-2λ^6-thia-3,5,12,19-tetrazatricyclo[12.3.1.14,8]nonadeca-1(18),4(19),5,7,14,16-hexaen-12-yl]methyl]phenyl]imidazolidine-2,4-dione], for which the concentration giving a half-maximal response (EC50) (Table 10, read-out: HBE EC50) is 1 to 3 µM. The Emax under setting [2] was over 60%.
As for `Cc1cccc(C)c1-c1cc2nc(n1)NS(=O)(=O)c1cccc(c1)C(=O)N(Cc1ccccc1-c1cn[nH]c1)[C@H](CC(C)(C)C)CO2` [Compound 147, (11R)-6-(2,6-dimethylphenyl)-11-(2,2-dimethylpropyl)-12-{[2-(1H-pyrazol-4-yl)phenyl]methyl}-9-oxa-2λ^6-thia-3,5,12,19-tetraazatricyclo[12.3.1.14,8]nonadeca-1(17),4,6,8(19),14(18),15-hexaene-2,2,13-trione], for the setting “Table 10, read-out: HBE EC50”, the EC50 was under 1 µM. Besides, the Emax under setting [2] was over 60%.
On the same counts, the results for `Cc1cccc(C)c1-c1cc2nc(n1)NS(=O)(=O)c1cccc(c1)C(=O)N(Cc1cccc(N3CC(=O)NC3=O)c1)[C@H](CC(C)(C)C)CO2` [Compound 148, 1-[3-[[(11R)-6-(2,6-Dimethylphenyl)-11-(2,2-dimethylpropyl)-2,2,13-trioxo-9-oxa-2λ^6-thia-3,5,12,19-tetrazatricyclo[12.3.1.14,8]nonadeca-1(18),4(19),5,7,14,16-hexaen-12-yl]methyl]phenyl]imidazolidine-2,4-dione] are 1 to 3 µM and over 60%.
As to `Cc1cccc(C)c1-c1cc2nc(n1)NS(=O)(=O)c1cccc(c1)C(=O)N(Cc1ncc(N3CC4(CCC4)C3)cn1)[C@H](CC(C)(C)C)CO2` [Compound 155, (11R)-12-[[5-(2-Azaspiro[3.3]heptan-2-yl)pyrimidin-2-yl]methyl]-6-(2,6-dimethylphenyl)-11-(2,2-dimethylpropyl)-2,2-dioxo-9-oxa-2λ^6-thia-3,5,12,19-tetrazatricyclo[12.3.1.14,8]nonadeca-1(18),4(19),5,7,14,16-hexaen-13-one], for the setting “Table 12, read-out: HBE EC50”, the half-maximal effective concentration (EC50) is under 1 µM. Besides, the Emax under setting [3] was over 60%.
On to `Cc1cccc(C)c1-c1cc2nc(n1)NS(=O)(=O)c1cccc(c1)C(=O)N(Cc1ccc(C3CC(C)(C)CO3)cn1)[C@H](CC(C)(C)C)CO2` (stereo partly drawn) [Compound 156, (11R)-6-(2,6-Dimethylphenyl)-11-(2,2-dimethylpropyl)-12-[[5-(4,4-dimethyltetrahydrofuran-2-yl)-2-pyridyl]methyl]-2,2-dioxo-9-oxa-2λ6-thia-3,5,12,19-tetrazatricyclo[12.3.1.14,8]nonadeca-1(18),4(19),5,7,14,16-hexaen-13-one], for which the EC50 (Table 12, read-out: HBE EC50) was under 1 µM. Also, the Emax under setting [3] was over 60%.
With `Cc1cccc(C)c1-c1cc2nc(n1)NS(=O)(=O)c1cccc(c1)C(=O)N(Cc1ccc(C3CC4(C3)CC(C)(C)C4)cn1)[C@H](CC(C)(C)C)CO2` [Compound 157, (11R)-6-(2,6-Dimethylphenyl)-11-(2,2-dimethylpropyl)-12-[[5-(2,2-dimethylspiro[3.3]heptan-6-yl)-2-pyridyl]methyl]-2,2-dioxo-9-oxa-2λ6-thia-3,5,12,19-tetrazatricyclo[12.3.1.14,8]nonadeca-1(18),4(19),5,7,14,16-hexaen-13-one], the EC50 (Table 13, read-out: HBE EC50) was under 1 µM. In addition, the Emax under setting [4] was over 60%.
On the same counts, the results for `Cc1cccc(C)c1-c1cc2nc(n1)NS(=O)(=O)c1cccc(c1)C(=O)N(Cc1ncc(C3CC(C)(C)C3)cn1)[C@H](CC(C)(C)C)CO2` [Compound 158] are under 1 µM and over 60%.
Consider `Cc1cccc(C)c1-c1cc2nc(n1)NS(=O)(=O)c1cccc(c1)C(=O)N(Cc1ccc(C3CC(C)(C)C3)cn1)[C@H](CC(C)(C)C)CO2` [Compound 159], for which the concentration giving a half-maximal response (EC50) (Table 13, read-out: HBE EC50) is under 1 µM. Also, under setting [4], the Emax was over 60%.
For the compound `Cc1cccc(C)c1-c1cc2nc(n1)NS(=O)(=O)c1cccc(c1)C(=O)N(Cc1ncc(C3CC4(CCC4)C3)cn1)[C@H](CC(C)(C)C)CO2` [Compound 160], the half-maximal effective concentration (EC50) (Table 13, read-out: HBE EC50) is under 1 µM. The Emax under setting [4] is over 60%.
On to `Cc1cccc(C)c1-c1cc2nc(n1)NS(=O)(=O)c1cccc(c1)C(=O)N(Cc1ncc(C3CC4(COC4)C3)cn1)[C@H](CC(C)(C)C)CO2` [Compound 161], for which the EC50 (Table 13, read-out: HBE EC50) is under 1 µM. Further, under setting [4], the Emax is over 60%.
On to `Cc1cccc(C)c1-c1cc2nc(n1)NS(=O)(=O)c1cccc(c1)C(=O)N(Cc1ncc(C3CC4(C3)CC(C)(C)C4)cn1)[C@H](CC(C)(C)C)CO2` [Compound 162], for which the EC50 (Table 13, read-out: HBE EC50) was under 1 µM. The Emax under setting [4] was over 60%.
`Cc1cccc(C)c1-c1cc2nc(n1)NS(=O)(=O)c1cccc(c1)C(=O)N(Cc1ccc(C3CC4(CCC4)C3)cn1)[C@H](CC(C)(C)C)CO2` [Compound 163]: the EC50 (Table 13, read-out: HBE EC50) fell in the range of 1 to 3 µM. Further, under setting [4], the Emax was over 60%.
